Test results published in patent US20070179143A1 (priority 2003, published 2007).

Columns and labels:
SK-OV-3 = experiment: Cytotoxicity test to cancer cell lines (SRB method), SK-OV-3; assay type: cell-based; details: Homo sapiens, SK-OV-3, 48 h, read-out: Cytotoxicity ED50 SK-OV-3
SK-MEL-2 = experiment: Cytotoxicity test to cancer cell lines (SRB method), SK-MEL-2; assay type: cell-based; details: Homo sapiens, SK-MEL-2, 48 h, read-out: Cytotoxicity ED50 SK-MEL-2
in vivo = details: ICR, mouse, in vivo
Description: (§1) 5-week-old ICR mice having the weight of 25-35 g (SPF, SLC Co. Japan) were used as test animals. A pair of female and male of the mice was given for the test of each compound. Group T2, T3, T4 and T5 were arranged (10 animals per group) for the test of acute toxicity of the compound prepared in the Example 12. […] Control group (T1) was administered with only a solvent without the compound of the Example 12.
(§2) For comparison, colchicine was injected in the test animals by the same method as described in the above. The group treated with colchicine was composed of 6 mice.
(§3) Taxol produced by Bristol Myers Sqibb Co. was also used for comparison, and the injection and the test of acute toxicity were performed by the same method as described in the above.

ICR mice = experiment: in vivo; details: for Death Total: ICR mice, 7 days, deaths/animals; for Test Day (Death) 2: deaths on day 2; for Test Day (Death) 5: deaths on day 5; for Test Day (Death) 1: deaths on day 1
Description: as §1, §2, §3

A549 = experiment: Cytotoxicity test to cancer cell lines (SRB method), A549; details: Homo sapiens, A549, 48 h, read-out: Cytotoxicity ED50 A549
HCT-15 = experiment: Cytotoxicity test to cancer cell lines (SRB method), HCT-15; details: Homo sapiens, HCT-15, 48 h, read-out: Cytotoxicity ED50 HCT15
Description: Cytotoxicity to A549 (Korea Research Institute of Chemical Technology), SK-OV-3 (Korea Research Institute of Chemical Technology), SK-MEL-2 (Korea Research Institute of Chemical Technology), HCT-15 (Korea Research Institute of Chemical Technology) and MCF7 (Korean Cell Line Bank, Seoul National University School of medicine) cells was measured by Sulforhodamin-B (SRB) method (1989, National Cancer Institute (NCI)) which was developed for the measurement of in vitro anticancer activity of a drug. Cells were separated using 0.25% trypsin-EDTA solution, leading to the preparation of a cell suspension by 5×10^318 2×10^4 cells/well. Then, the suspension was distributed into a 96 well plate by 100 μl/well, which was cultured in a 37° C., 5% CO2 incubator for 24 hours. Compounds prepared in examples of the present invention were used as a sample. Precisely, the compound was dissolved in dimethylsulfoxide and diluted with RPMI 1640 medium before being used as a sample. The final concentration of the sample used varied ranging 1 μM˜0.00001 μM. The medium was removed from the 96 well plate and then diluted sample solution was added by 100 μl/well, followed by further culture in a 37° C., 5% CO2 incubator for 48 hours. Tz (time zero) plate was collected from the point of adding the sample. Upon completing the culture, the medium was removed from each well along with Tz plate, then 10% trichloroacetic acid (TCA) was added by 100 μl/well. The plate was left at 4° C. for 1 hour to let cells be fixed on the floor of the plate. After cells were fixed completely, the plate was washed with water 5-6 times to remove the remaining trichloroacetic acid solution completely and moisture was completely dried at room temperature. 0.4% Sulforhodamine-B was dissolved in 1% acetic acid solution to prepare a staining solution. Cells were stained for 30 minutes with a dye added by 100 μl to each well of the completely dried plate. Then, the plate was washed with 1% acetic acid solution 5-6 times to remove sulforhodamine-B remained uncombined with cells. Then, the plate was dried at room temperature. 10 mM Tris solution was added by 100 μ/well thereto to dissolve the dye, and optical density (OD) was measured at 520 nm with a micro plate reader.
ED50 (concentration that inhibits cancer cell growth 50%, 5.0% effective dose, nM/ml) of the sample to cancer cell was calculated as follows. OD value at the point of beginning the culture with the sample was determined as Tz (time zero) value. OD value of a well to be cultured without the sample was determined as a control value (C). OD value of a well pretreated with the sample was determined as experimental value (T). After calculating Tz, C and T, cytotoxicity of the sample was measured by the below <Mathematical Formula 1>. T≦Tz, (T−Tz)/(C−Tz)×100 T>Tz, (T−Tz)/Tz×10,0 <Mathematical Formula 1>
ED50, the concentration that can inhibit cancer cell growth by 50%, was calculated by using a regression analysis of lotus program based on the degree of cytotoxicity obtained by the <Mathematical Formula 1>.

[1] = Body weight change of NCI-H460 xenografted nude mice; assay type: in vivo, BALB/c nude mouse
MCF7 = experiment: Cytotoxicity test to cancer cell lines (SRB method), MCF7; details: read-out: Cytotoxicity ED50 MCF-7, MCF-7, 48 hours
[2] = tested on: human lung cancer cell line NCI-H460; experiment: Inhibiting effect on tumor growth, NCI-H460 xenografted nude mice
Description: Samples for the experiment were stored in a refrigerator all the time. […] The prepared sample is subject to be precipitated, so that tip sonication was performed right before the administration to disperse it well.
7 week-old female S.P.F. BALB/c nude mice, provided by Charles River Co., Japan, were used as test animals. The test animals were adapted in a Hepa-filter room over a week before the test. The temperature was 21±2° C., humidity was 55±5% and 12-hour light and dark cycle was automatically repeated in that lab. Solid feed (Cheiluedang) was sterilized by radioactive rays and drinking water was also sterilized by autoclave. Feed and water were taken by the animal freely. Cancer cell line used in this experiment was NCI-H460 (human lung tumor cell line) provided by Korea Research Institute of Bioscience and Biotechnology.
The tumor cell line, stored in liquid nitrogen, was thawed and cultured in a 37° C., 5% CO2 incubator for a required time. Upon completing the culture, all the cells were recovered and cell concentration of the culture fluid was adjusted using PBS to 3×10^7 cells/ml. The adjusted cell culture solution was injected hypodermically into armpit between right shoulder girdle and chest wall by 0.3 ml per mouse. From the next day of grafting, NCI-H460 xenografted nude mice were administered intraperitoneal everyday with the sample solution by 0.2 ml/20 g of weight, once a day.
After the grafting of tumor cells, the volume of a tumor in each individual was measured in three dimensions by using a vernier caliper, which was represented in the below <Mathematical Formula 2>. Tumor volume=(length×width×height)/2 <Mathematical Formula 2>
Body weight changes of animal were measured three times a week. Each xenografted nude mouse was sacrificed to separate a tumor, which was then weighed.

[3] = 2 mg/kg intraperitoneal once a day
[4] = 10 mg/kg intraperitoneal once a day
[5] = 10 mg/kg intraperitoneal once a day, Day 14
[6] = 2.5 mg/kg intraperitoneal once a day

Structure (SMILES): COc1cc2c(c(OC)c1OC)-c1ccc(OC)c(=O)cc1[C@@H](NC(C)=O)CC2 [Colchicine]
- EC50 (SK-OV-3): 18 nM
- EC50 (SK-MEL-2): 6 nM
- LD50 at 7 days (in vivo; both): 2 mg/kg
- Death Total (ICR mice; 0.5 mg/kg): 0/6
- Death Total (ICR mice; 1.0 mg/kg): 0/6
- Death Total (ICR mice; 2.0 mg/kg): 3/6
- Test Day (Death) 3 (ICR mice; 2.0 mg/kg, deaths on day 3): 1
- Test Day (Death) 6 (ICR mice; 2.0 mg/kg, deaths on day 6): 2
- Death Total (ICR mice; 5.0 mg/kg): 5/5
- Test Day (Death) 2 (ICR mice; 5.0 mg/kg): 3
- Test Day (Death) 4 (ICR mice; 5.0 mg/kg, deaths on day 4): 1
- Test Day (Death) 5 (ICR mice; 5.0 mg/kg): 1
- EC50 (A549): 21 nM
- EC50 (HCT-15): 9 nM

Structure (SMILES): COc1cccc2c1C(=O)c1c(O)c3c(c(O)c1C2=O)C[C@@](O)(C(=O)CO)C[C@@H]3O[C@H]1C[C@H](N)[C@H](O)[C@H](C)O1 [Doxorubicin, reference compound]
- EC50 (SK-OV-3): 47 nM
- EC50 (SK-MEL-2): 16 nM
- Body weight Change Day 1 [1, 3]: 100.0 ± 0.0%
- Body weight Change Day 3 [1, 3]: 105.0 ± 4.1%
- Body weight Change Day 7 [1, 3]: 103.9 ± 5.5%
- Body weight Change Day 9 [1, 3]: 100.5 ± 4.6 %
- Body weight Change Day 11 [1, 3]: 96.4 ± 3.5 %
- Body weight Change Day 14 [1, 3]: 85.1 ± 1.8 %
- EC50 (A549): 13 nM
- EC50 (MCF7): 50 nM
- EC50 (HCT-15): 25 nM
- Tumor Weight Day 14 ([2]; 2 mg/kg intraperitoneal once a day, Day 14): 534.1 ± 87.9 mg

Structure (SMILES): CCOc1cc2c(c(OC)c1OC)-c1ccc(SC)c(=O)cc1[C@@H](NC(=O)c1cccc(CO[N+](=O)[O-])c1F)CC2 [Example 8, N-[(7S)-3-ethoxy-1,2-dimethoxy-10-methylsulfanyl-9-oxo-5,6,7,9-tetrahydro-benzo[a]heptalen-7-yl]-2-fluoro-3-nitrooxymethyl-benzamide]
- EC50 (SK-OV-3): 0.04 nM
- EC50 (SK-MEL-2): 0.01 nM
- Body weight Change Day 1 [1, 4]: 100.0 ± 0.0%
- Body weight Change Day 3 [1, 4]: 103.5 ± 2.2%
- Body weight Change Day 7 [1, 4]: 99.8 ± 4.3 %
- Body weight Change Day 9 [1, 4]: 92.3 ± 4.1 %
- Body weight Change Day 11 [1, 4]: 89.3 ± 3.7 %
- Body weight Change Day 14 [1, 4]: 89.4 ± 5.3 %
- decrease of the weight of the mouse ([1]; comparing to solvent only or positive control): about 10%
- EC50 (A549): 0.02 nM
- EC50 (MCF7): 0.01 nM
- EC50 (HCT-15): 0.03 nM
- inhibition rate of the tumor volume ([2]; 10 mg/kg): 85%
- Tumor volume Day 0 ([2]; 10 mg/kg intraperitoneal once a day, Day 0): 0.0 ± 0.0
- Tumor volume Day 4 ([2]; 10 mg/kg intraperitoneal once a day, Day 4): 18.0 ± 3.7
- Tumor volume Day 7 ([2]; 10 mg/kg intraperitoneal once a day, Day 7): 25.2 ± 12.8
- Tumor volume Day 9 ([2]; 10 mg/kg intraperitoneal once a day, Day 9): 29.6 ± 13.8
- Tumor volume Day 11 ([2]; 10 mg/kg intraperitoneal once a day, Day 11): 35.2 ± 14.0
- Tumor Weight Day 14 [2, 5]: 143.4 ± 57.8 mg
- Tumor volume Day 14 [2, 5]: 44.5 ± 15.0
- size and weight of a tumor (in words) ([2]; comparing to solvent only (V.C-1, V.C-2) or positive control (taxol, adriamycin)): remarkably decreased

Structure (SMILES): COc1cc2c(c(OC)c1OC)-c1ccc(OC)c(=O)cc1[C@@H](NC(=O)c1cc(F)cc(CO[N+](=O)[O-])c1)CC2 [Example 40, 3-fluoro-5-nitrooxymethyl-N-[(7S)-1,2,3,10-tetramethoxy-9-oxo-5,6,7,9-tetrahydro-benzo[a]heptalen-7-yl]-benzamide]
- EC50 (SK-OV-3): 45.6 nM
- EC50 (SK-MEL-2): 60.7 nM
- EC50 (A549): 43.9 nM
- EC50 (MCF7): 10.5 nM
- EC50 (HCT-15): 24.3 nM

Structure (SMILES): COc1cc2c(c(OC)c1OC)-c1ccc(SC)c(=O)cc1[C@@H](N(C)C(=O)c1cccc(CO[N+](=O)[O-])c1)CC2 [Example 41, 3-nitrooxymethyl-N-methyl-N-[(7S)-1,2,3-trimethoxy-10-methylsulfanyl-9-oxo-5,6,7,9-tetrahydro-benzo[a]heptalen-7-yl]-benzamide]
- EC50 (SK-OV-3): > 50 nM
- EC50 (SK-MEL-2): > 50 nM
- EC50 (A549): > 50 nM
- EC50 (MCF7): 47.3 nM
- EC50 (HCT-15): 36.4 nM

Structure (SMILES): COc1cc2c(c(OC)c1OC)-c1ccc(SC)c(=O)cc1[C@@H](N(C)C(=O)c1cc(F)cc(CO[N+](=O)[O-])c1)CC2 [Example 42, 3-fluoro-N-methyl-5-nitrooxymethyl-N-[(7S)-1,2,3-trimethoxy-10-methylsulfany-9-oxo-5,6,7,9-tetrahydro-benzo[a]heptalen-7-yl]-benzamide]
- EC50 (SK-OV-3): > 50 nM
- EC50 (SK-MEL-2): > 50 nM
- EC50 (A549): > 50 nM
- EC50 (MCF7): > 50 nM
- EC50 (HCT-15): > 50 nM

Structure (SMILES): CC(=O)O[C@H]1C(=O)[C@@]2(C)[C@H]([C@H](OC(=O)c3ccccc3)[C@]3(O)C[C@H](OC(=O)[C@H](O)[C@@H](NC(=O)c4ccccc4)c4ccccc4)C(C)=C1C3(C)C)[C@]1(OC(C)=O)CO[C@@H]1C[C@@H]2O [Paclitaxel, reference compound]
- EC50 (SK-OV-3): 1.2 nM
- EC50 (SK-MEL-2): 0.1 nM
- Body weight Change Day 1 [1, 6]: 100.0 ± 0.0%
- Body weight Change Day 3 [1, 6]: 106.0 ± 1.5%
- Body weight Change Day 7 [1, 6]: 99.2 ± 4.0 %
- Body weight Change Day 9 [1, 6]: 97.1 ± 0%
- LD50 (in vivo; iv): 9 to 13 mg/kg
- Death Total (ICR mice; 4.0 mg/kg): 0/5
- Death Total (ICR mice; 6.0 mg/kg): 1/5
- Test Day (Death) 2 (ICR mice; 6.0 mg/kg): 1
- Death Total (ICR mice; 9.0 mg/kg): 2/5
- Test Day (Death) 5 (ICR mice; 9.0 mg/kg): 2
- Death Total (ICR mice; 13.0 mg/kg): 4/5
- Test Day (Death) 1 (ICR mice; 13.0 mg/kg): 2
- Test Day (Death) 2 (ICR mice; 13.0 mg/kg): 2
- Death Total (ICR mice; 20.0 mg/kg): 5/5
- Test Day (Death) 1 (ICR mice; 20.0 mg/kg): 5
- EC50 (A549): 0.3 nM
- EC50 (MCF7): 0.9 nM
- EC50 (HCT-15): 0.1 nM
